Reference: patent US20260306502A1, “MITOCHONDRIAL UNCOUPLERS FOR TREATMENT OF METABOLIC DISEASES AND CANCER” (Mito Biopharma, LLC, priority 2022, published 2026)

Each compound was assayed on C2C12 cells (assay: Mitochondrial uncoupling activity by oxygen consumption rate (OCR) assay, Seahorse, in presence of oligomycin). Details: Mus musculus, C2C12; in the presence of oligomycin 2.5 μM; read-out: COCR-min: minimal concentration increasing OCR in the presence of oligomycin.
Type: cell-based, mouse
Experimental: By definition, mitochondrial uncoupling is the decoupling of mitochondrial electron transport chain activity (mitochondrial oxidation) from ATP synthesis by mitochondrial ATP synthase. Technically, mitochondrial uncoupling activity is defined by the ability of a chemical compound to induce oxygen consumption of cells or isolated mitochondria in the presence of a mitochondrial ATP synthase inhibitor such as oligomycin. Accordingly, mitochondrial uncoupling activity was determined by oxygen consumption rate assay with a Seahorse XF96 or a Seahorse XF24 instrument following the vendor's instruction, using mouse myoblast C2C12 cells grown in a medium containing 10% fetal bovine serum. OCR was measured stepwise under the following conditions: first under normal growth conditions; then. OCR was measured after oligomycin was added to reach a final concentration of 2.5 μM); then OCR was measured after the compound was further added at varying concentrations. Finally, rotenone and antimycin A were added to confirm that the measurement was mitochondrial oxygen consumption (rotenone and […] mitochondrial electron transport chain inhibitors).
COCR-min the minimal concentration required for each compound to induce OCR in the presence of oligomycin, of disclosed compounds, was also determined by varying the final concentration of the compound added to the Seahorse OCR analysis experiment as described above (FIG. 2, varying testing compound concentration). Table 8 summarizes the mitochondrial uncoupling activity of disclosed compounds, as represented by COCR-min.
`COCCOCc1cc(Cl)cc(C(=O)Nc2nc3ccc(OC(F)(F)F)cc3s2)c1O` [Compound 5, 5-chloro-2-hydroxy-3-((2-methoxyethoxy)methyl)-N-(6-(trifluoromethoxy)benzo[d]thiazol-2-yl)benzamide] showed a minimal effective concentration of 5 to 10 µM.
`C[C@@H]1CN(Cc2cc(Cl)cc(C(=O)Nc3nc4c(COCCNS(C)(=O)=O)cc(C(F)(F)F)cc4s3)c2O)C[C@H](C)O1` [Compound 92, 5-chloro-3-((cis-2,6-dimethylmorpholino)methyl)-2-hydroxy-N-(4-((2-(methylsulfonamido)ethoxy)methyl)-6-(trifluoromethyl)benzo[d]thiazol-2-yl)benzamide] gave a minimal effective concentration of less than 5 µM.
`COCCN(CCOC)Cc1cc(Cl)cc(C(=O)Nc2nc3c(COCCNS(C)(=O)=O)cc(C(F)(F)F)cc3s2)c1O` [Compound 93, 3-((bis(2-methoxyethyl)amino)methyl)-5-chloro-2-hydroxy-N-(4-((2-(methylsulfonamido)ethoxy)methyl)-6-(trifluoromethyl)benzo[d]thiazol-2-yl)benzamide] was tested, and the minimal effective concentration was less than 5 µM.
With `O=C(Nc1nc2ccc(C(F)(F)F)cc2s1)c1cc(Cl)cc(CN2CCCC(F)(F)C2)c1O` [Example 59, 5-chloro-3-((3,3-difluoropiperidin-1-yl)methyl)-2-hydroxy-N-(6-(trifluoromethyl)benzo[d]thiazol-2-yl)benzamide] the minimal effective concentration was less than 5 µM.
With `COCCOCc1cc(Cl)cc(C(=O)Nc2ccc(C(F)(F)F)nc2)c1O` [Compound 20, 5-chloro-2-hydroxy-3-((2-methoxyethoxy)methyl)-N-(6-(trifluoromethyl)pyridin-3-yl)benzamide] the minimal effective concentration was 5 to 10 µM.
`Cc1cc(Cl)cc(C(=O)Nc2nc3c(COCCN4CCN(C)CC4)cc(C(F)(F)F)cc3s2)c1O` [Compound 75, 5-chloro-2-hydroxy-3-methyl-N-(4-((2-(4-methylpiperazin-1-yl)ethoxy)methyl)-6-(trifluoromethyl)benzo[d]thiazol-2-yl)benzamide] gave a minimal effective concentration of less than 5 µM.
Compound `O=C(Nc1nc2ccc(C(F)(F)F)cc2s1)c1cc(Cl)cc(CN2CCCC2C(F)(F)F)c1O` (stereo not shown) [Compound 56, 5-chloro-2-hydroxy-N-(6-(trifluoromethyl)benzo[d]thiazol-2-yl)-3-((2-(trifluoromethyl)pyrrolidin-1-yl)methyl)benzamide] has a minimal effective concentration of less than 5 µM.
In the case of `CC(=O)N1CCN(Cc2cc(Cl)cc(C(=O)Nc3nc4ccc(C(F)(F)F)cc4s3)c2O)CC1` [Compound 19, 3-((4-acetylpiperazin-1-yl)methyl)-5-chloro-2-hydroxy-N-(6-(trifluoromethyl)benzo[d]thiazol-2-yl)benzamide], the minimal effective concentration is reported as 5 to 10 µM.
For `Cc1cc(Cl)cc(C(=O)Nc2nc3c(COCc4ccccc4)cc(C(F)(F)F)cc3s2)c1O` [Compound 84, N-(4-((benzyloxy)methyl)-6-(trifluoromethyl)benzo[d]thiazol-2-yl)-5-chloro-2-hydroxy-3-methylbenzamide], the minimal effective concentration was less than 5 µM.
`COCCOCc1cc(Cl)cc(C(=O)Nc2ccc(C(F)(F)F)cn2)c1O` [Compound 45, 5-chloro-2-hydroxy-3-((2-methoxyethoxy)methyl)-N-(5-(trifluoromethyl)pyridin-2-yl)benzamide] showed a minimal effective concentration of 5 to 10 µM.
`COCCOCc1cc(Cl)cc(C(=O)Nc2cnc(C(F)(F)F)cn2)c1O` [Compound 6, 5-chloro-2-hydroxy-3-((2-methoxyethoxy)methyl)-N-(5-(trifluoromethyl)pyrazin-2-yl)benzamide] showed a minimal effective concentration of 5 to 10 µM.
In the case of `CO/N=C/c1cc(Cl)cc(C(=O)Nc2nc3ccc(C(F)(F)F)cc3s2)c1O` [Compound 39, (E)-5-chloro-2-hydroxy-3-((methoxyimino)methyl)-N-(6-(trifluoromethyl)benzo[d]thiazol-2-yl)benzamide], the minimal effective concentration is reported as greater than 10 µM.

Same assay, conditions: Mus musculus, C2C12; minimal concentration leading to OCR increase; read-out: Activity (Cmin-OCR)
`COCCOCc1cc(Cl)cc(C(=O)Nc2nc3ccc(C(F)(F)F)cc3s2)c1O` [drawing 256] was tested, and the minimal effective concentration was 2.5 µM.
